In patent EP0837870B1, “SYNTHETIC MODIFICATION TO SPINOSYN COMPOUNDS” (Dow AgroSciences LLC, priority 1995, dated 1997):
Where a name gives a salt, the structure may show the parent alone.

Assays:
Format in all cases: in vivo
[1] = test system: Stomoxys calcitrans (stable fly); assay: Adult stable fly test, serum-saturated dental wick; conditions: readings at 24 and 48 hours, which one is reported is not stated; for Percentage of ASF killed at 100 ppm: 100 ppm in bovine serum; for Percentage of ASF killed at 10 ppm: 10 ppm in bovine serum
Procedure: The compound to be evaluated was dissolved in 1 part acetone/1 part ethanol to provide a stock solution of the compound at a concentration of 5,000 ppm; this solution was shaken for 15 minutes on a sonicator. Portions of the stock solution were placed in 15 ml test tubes, and portions of bovine serum were added to provide the desired dilution of the test compound. A dental wick was placed in each test tube and the serum allowed to saturate the wick.
For the adult stable fly test, the saturated wick was placed on a filter paper in a petri dish, and approximately 10 chilled live, hungry stable flies were placed on the center of the dish bottom. The dish was covered and allowed to incubate at 27°C and 60% relative humidity for 48 hours. Mortality readings were made at each of 24 and 48 hours, and adjusted for any mortality in the vehicle control to determine percent efficacy against adult stable fly.

[2] = test system: tobacco budworm (Heliothis virescens); assay: Activity against tobacco budworm (TBW), sprayed diet cups with eggs
Procedure: (§1) In conducting evaluations of insecticidal activity, each test compound was formulated as a 400 ppm solution, and this solution was then diluted with water to give lesser concentrations. The 400 ppm solution was prepared by combining 19.2 mL of .05% solution of Tween 20 (polyoxyethylene (20) sorbitan monolaurate) in water with a solution of 8 mg of the compound in .8 mL of acetone/EtOH (9/1).
Activity against tobacco budworm (Heliothis virescens) was evaluated as follows. A general purpose lepidoptera artificial diet was diluted to half strength with a 5% non nutritive agar. 8 mL of this diet material was dispensed into each one ounce diet cup. One hour prior to treatment 18 to 20 eggs were dispensed onto the diet surface. The cups were then sprayed with formulated material through a flat-fan nozzle. […] Treated cups were air dried prior to sealing with plastic caps. The cups were held for 6 days at room temperature. Activity was then rated based on the total number of live and dead larvae, and on the size of live larvae.

[3] = test system: two spotted spider mite (Tetranychus urticae); assay: Activity against two spotted spider mite (TSSM), sprayed infested squash plants; conditions: RATE 400 (ppm), three days after treatment, 4320 min
Procedure: as §1
Activity against cotton aphid (Aphis gossypii) and two spotted spider mite (Tetranychus urticae) was evaluated as follows. Golden crookneck squash plants were grown to the expanded cotyledon stage (about 6 to 8 days). The plants were infested with cotton aphids and two spotted spider mites 16 to 24 hours before application of the test material by transfer of infested foliage cut from a stock colony. Immediately prior to spray application of the test material the transfer foliage is removed from the squash plants. The test is run using concentrations of 400 ppm and 50 ppm. The plants are sprayed with test solution using an atomizing sprayer at 17 psi. Both surfaces of the leaves are covered until runoff, and then allowed to dry. Activity of each compound was determined three days after treatment. Activity was rated as a percent based on the mites/aphids present in plants sprayed with solvent alone.

Molecule | Percentage of ASF killed at 100 ppm [1] | % MORTALITY ([2]; RATE 400 (ppm), 6 days) | further results
CC[C@H]1CCC[C@H](O[C@H]2CC[C@H](NC)[C@@H](C)O2)[C@@H](C)C(=O)C2=C[C@H]3[C@@H]4C[C@H](O[C@@H]5O[C@@H](C)[C@H](OC)[C@@H](OC)[C@H]5OC)C[C@H]4CC[C@H]3[C@@H]2CC(=O)O1 [Example F24, 5,6-Dihydro Spinosyn B] | 100% | 100% | % MORTALITY [3]: 100%
(5R,6R)-5,6-dibromo Spinosyn B [Example F11b] | 100% | 100% | –
CC[C@H]1CCC[C@H](O[C@H]2CC[C@H](N(C)C)[C@@H](C)O2)[C@@H](C)C(=O)[C@@H]2C[C@@H]3[C@@H](CC[C@@H]4C[C@@H](O[C@@H]5O[C@@H](C)[C@H](OC)[C@@H](OC)[C@H]5OC)C[C@H]43)[C@@H]2CC(=O)O1 [Example D2, (14R)-5,6,13,14-Tetrahydro Spinosyn A] | 100% | – | Percentage of ASF killed at 10 ppm [1]: <50%
CC[C@H]1CCC[C@H](O[C@H]2CCC(=O)[C@@H](C)O2)[C@@H](C)C(=O)C2=C[C@H]3[C@@H]4C[C@H](O[C@@H]5O[C@@H](C)[C@H](OC)[C@@H](OC)[C@H]5OC)C[C@H]4[C@@H](Br)[C@H](Br)[C@H]3[C@@H]2CC(=O)O1 [Example F11a, (5R,6R)-5,6-dibromo-4''-keto Spinosyn A] | <50% | – | –
CC[C@H]1CCC[C@H](O)[C@@H](C)C(=O)C2=C[C@H]3[C@@H]4C[C@H](O[C@@H]5O[C@@H](C)[C@H](OC)[C@@H](OC)[C@H]5OC)C[C@H]4CC[C@H]3[C@@H]2CC(=O)O1 [Example F20, 5,6-Dihydro Spinosyn A 17-Psa] | <50% | – | –
5,6-Dihydro Derivative of Compound 9-O-(2,3,4-Tri-O-ethyl-α-L-rhamnosyl) Spinosyn A 9-Psa [Example A1] | – | 100% | % MORTALITY [3]: 100%
CC[C@H]1CCC[C@H](O[C@H]2CC[C@H](N(C)C)[C@@H](C)O2)[C@@H](C)C(=O)C2=C[C@H]3[C@@H]4C[C@H](O[C@@H]5O[C@@H](C)[C@H](OC)[C@@H](OC)[C@H]5OC)C[C@H]4CC[C@H]3[C@@H]2CC(=O)O1 [Example F23, 5,6-Dihydro Spinosyn A Hemiglutarate salt] | 100% | 100% | % MORTALITY [3]: 100%
CCC1CCCC(OC2CCC(N(C)C)C(C)O2)C(C)C(=O)C2=CC3C4CC(OC5OC(C)C(OC)C(OC)C5OC)CC4[C@@H](S(C)(=O)=O)[C@H](OC(C)=O)C3C2CC(=O)O1 (stereo partly drawn) [Example F17, (5R,6R)-5-Acetoxy-6-methylsulfonyl Spinosyn A] | 100% | 100% | –
CCCCOC1C(OC)C(C)OC(OC2CC3CCC4C5CC(=O)OC(CC)CCCC(OC6CCC(N(C)C)C(C)O6)C(C)C(=O)C5=CC4C3C2)C1OC (stereo not shown) [Example A5, 5,6-Dihydro-3'-O-n-butyl Spinosyn J] | – | 100% | –
CCC1CCCC(OC2CCC(N(C)C)C(C)O2)C(C)C(=O)C2=CC3C4CC(OC5OC(C)C(OC)C(OC)C5OC)CC4[C@@]4(C)O[C@H]4C3C2CC(=O)O1 (stereo partly drawn) [Example F8a, (5S,6R)-Epoxy Spinosyn D] | – | 100% | % MORTALITY [3]: 90%
CCC1CCCC(OC2CCC(N(C)C)C(C)O2)C(C)C(=O)[C@H]2CC3C4CC(OC5OC(C)C(OC)CC5OC)CC4CCC3C2CC(=O)O1 (stereo partly drawn) [Example D3, (14S)-5,6,13,14-Tetrahydro-3'-deoxy Spinosyn J] | 100% | – | % MORTALITY ([2]; RATE 64 (unit not given), 8640 min): 95%
(5S,6R)-Epoxy-Spinosyn Q [Example F25] | – | 100% | –
dichloroketene acetal of (5S,6R)-5,6-dihydroxy Spinosyn A [Example F13a] | – | 100% | –
CCC1CCCC(OC2CCC(N(C)C)C(C)O2)C(C)C(=O)C2=CC3C4CC(O)CC4CCC3C2CC(=O)O1 (stereo not shown) [Example F19, 5,6-Dihydro Spinosyn A 9-Psa] | – | 100% | –
5,6-Dihydro Spinosyn J [Example F21] | 100% | 100% | –
CCC1CCCC(OC2CCC(N(C)C)C(C)O2)C(C)C(=O)C2=CC3C4CC(OC5OC(C)C(OC)C(OC)C5OC)CC4[C@@H](Br)[C@H](Br)C3C2CC(=O)O1 (stereo partly drawn) [Example F14, (5R,6R)-5,6-Dibromo Spinosyn A] | 100% | 60% | –
CCOC1C(OC)C(C)OC(OC2CC3CCC4C5CC(=O)OC(CC)CCCC(OC6CCC(N(C)C)C(C)O6)C(C)C(=O)C5=CC4C3C2)C1OC (stereo not shown) [Example A3, 5,6-Dihydro-3'-O-ethyl Spinosyn J] | – | 100% | % MORTALITY [3]: 100%
CCC1CCCC(OC2CCC(N(C)C)C(C)O2)C(C)C(=O)C2=CC3C4CC(OC5OC(C)C(OC)C(OC)C5OC)CC4C[C@H](O)C3C2CC(=O)O1 (stereo partly drawn) [Example F15a, (5S)-5,6-dihydro-5-hydroxy Spinosyn A] | – | 100% | –
CCC1CCCC(OC2CCC(N(C)C)C(C)O2)C(C)C(=O)C2=CC3C4CC(OC5OC(C)C(OC)C(OC)C5OC)CC4[C@@H](SC)[C@H](OC(C)=O)C3C2CC(=O)O1 (stereo partly drawn) [Example F16, (5R,6R)-5-Acetoxy-6-thiomethoxy Spinosyn A] | 100% | 100% | –
5,6-cis Dihydroxy-5,6-dihydro Spinosyn B [Example F12] | 100% | 100% | –
CC[C@H]1CCC[C@H](O)[C@@H](C)C(=O)C2=C[C@H]3[C@@H]4C[C@H](O[C@@H]5O[C@@H](C)[C@H](OC)[C@@H](OC)[C@H]5OC)C[C@H]4C(Br)C(Br)[C@H]3[C@@H]2CC(=O)O1 (stereo partly shown) [Example F5, 5,6-Dibromo Spinosyn A 17-Psa] | – | – | Percentage of ASF killed at 10 ppm [1]: <50%
CCC1CCCC(O[Si](C)(C)C)C(C)C(=O)C2=CC3C4CC(OC5OC(C)C(OC)C(OC)C5OC)CC4C4OC4C3C2CC(=O)O1 [Example E2, (5S,6R)-5,6-Epoxy-17-O-trimethylsilyl Spinosyn A 17-Psa] | – | – | % MORTALITY ([2]; RATE 80 (unit not given), 8640 min): 35%
CCC1CCCC(OC2CCC(N(C)C)C(C)O2)C(C)C(=O)C2=CC3C4CC(OC5OC(C)C(OC)C(OC)C5O)CC4CCC3C2CC(=O)O1 (stereo not shown) [Example F22, 5,6-Dihydro Spinosyn H] | 100% | 100% | –
CCCOC1C(OC)C(C)OC(OC2CC3CCC4C5CC(=O)OC(CC)CCCC(OC6CCC(N(C)C)C(C)O6)C(C)C(=O)C5=CC4C3C2)C1OC (stereo not shown) [Example A4, 5,6-Dihydro-3'-O-n-propyl Spinosyn J] | – | 100% | % MORTALITY [3]: 100%
(5R,6R)-6-Bromo-5-hydroxy Spinosyn J [Example F18] | 100% | 100% | –
CCC1CCCC(OC2CCC(N(C)C)C(C)O2)C(C)C(=O)C2=CC3C4CC(OC5OC(C)C(OC)C(OC)C5OC(=O)c5ccc(C(F)(F)F)cc5)CC4[C@@]4(C)O[C@H]4C3C2CC(=O)O1 (stereo partly drawn) [Example A2, (5S,6R)-Epoxy-2'-O-(p-trifluoromethyl)benzoyl Spinosyn Q] | 100% | 100% | –
CCC1CCCC(OC2CCC(N(C)C)C(C)O2)C(C)C(=O)C2=CC3C4CC(OC5OC(C)C(OC)C(OC)C5OC)CC4[C@@H](OC(=O)C(Cl)(Cl)Cl)[C@@H](OC(=O)C(Cl)(Cl)Cl)C3C2CC(=O)O1 (stereo partly drawn) [Example F13b, (5S,6R)-5,6-bis(trichloroacetoxy) Spinosyn A] | – | 60% | –
